Laboratory results as given in US11219221B2 (FarmHannong Co., Ltd., priority 2017, dated 2022).

What was measured:
[1] = test system: CyPPO17 wild type (SEQ ID NO: 3) in PPO-deficient E. coli BT3(ΔPPO); format: cell-based; details: LB agar, 37° C., light, 16 to 20 hours
Description: (§1) The mutated CyPPO gene obtained from the Example 2 was transformed to BT3 (ΔPPO) strain which is deficient of PPO activity and cultured in LB media with PPO-inhibiting herbicide, thereby examining whether growth of transformed BT3 was not inhibited.
(§2) BT3 competent cells were transformed with the pET303-CyPPO16 and pET303-CyPPO17 plasmids and those with a mutation(s) constructed in Example 2 respectively, and were cultured in LB agar media containing carbenicillin (Gold Biotechnology, Co., Ltd.).
(§3) Single colony of E. coli transformed with each CyPPO gene was cultured in 3 ml of LB broth containing carbenicillin overnight, and then was subcultured until absorbance (0D600) reached 0.5 to 1. Then, it was diluted with LB broth to OD600=0.5. Again, the diluted solution was serially diluted 4 times by a factor of one tenth.
(§4) The LB agar media (LB 25 g/l, Bacto agar 15 g/l) containing carbenicillin (100 μg/ml) and 0 to 4,000 μM of various herbicides dissolved in DMSO was prepared. Next, 10 μl of each diluted solution was dropped on the plate and cultured at 37° C. under light (Tables 7 and 9, FIGS. 2 to 6, and 18 to 22) or dark (Tables 8 and 10, FIGS. 7 to 17, and 23 to 33) for 16 to 20 hours. Then, extent of tolerance was evaluated.
(§5) The extent of herbicide tolerance of the mutated genes was evaluated by comparing that of mutated genes with that of wild type. The relative tolerance was represented with “+” as a factor of 10 times. Evaluation result was listed in Tables 7 to10 and FIGS. 2 to 33:
(§6) In Tables 7 to 10, tolerance level was presented as of tolerance of wild type and of variants equivalent to that of wild type, and was done as ‘+’ per each 10 fold resistance until ‘+++++’ as maximal resistance. (Tolerance level was evaluated by relative growth level of variants to that of wild type in the media containing highest concentration of herbicide; ‘+’=1-9 fold higher tolerance, ‘++’=10-99 fold higher tolerance, ‘+++’=100-999 fold higher tolerance, ‘++++’=1,000-9,999 fold higher tolerance, ‘+++++’=more than 10,000 fold higher tolerance)

[2] = test system: CyPPO16 wild type (SEQ ID NO: 1) in PPO-deficient E. coli BT3(ΔPPO); format: cell-based; details: LB agar, 37° C., light, 16 to 20 hours
Description: as §1, §2, §3, §4, §5, §6

[3] = test system: CyPPO16 (SEQ ID NO: 1) variant V305M in PPO-deficient E. coli BT3(ΔPPO); format: cell-based; details: LB agar, 37° C., light, 16 to 20 hours
Description: as §1, §2, §3, §4
(§7) The extent of herbicide tolerance of the mutated genes was evaluated by comparing that of mutated genes with that of wild type. The relative tolerance was represented with “+” as a factor of 10 times.
(§8) In Tables 7 to 10, tolerance level was presented as of tolerance of wild type and of variants equivalent to that of wild type, and was done as ‘+’ per each 10 fold resistance until ‘+++++’ as maximal resistance.

[4] = test system: CyPPO16 (SEQ ID NO: 1) variant A162C in PPO-deficient E. coli BT3(ΔPPO); format: cell-based; details: LB agar, 37° C., light, 16 to 20 hours
Description: as §1, §2, §3, §4, §7, §8

[5] = test system: CyPPO17 (SEQ ID NO: 3) variant F359C in PPO-deficient E. coli BT3(ΔPPO); format: cell-based; details: LB agar, 37° C., light, 16 to 20 hours
Description: as §1, §2, §3, §4, §7, §8

[6] = test system: CyPPO17 (SEQ ID NO: 3) variant A166C in PPO-deficient E. coli BT3(ΔPPO); format: cell-based; details: LB agar, 37° C., light, 16 to 20 hours
Description: as §1, §2, §3, §4, §7, §8

[7] = test system: CyPPO17 (SEQ ID NO: 3) variant A166L in PPO-deficient E. coli BT3(ΔPPO); format: cell-based; details: LB agar, 37° C., light, 16 to 20 hours
Description: as §1, §2, §3, §4, §7, §8

[8] = test system: CyPPO16 (SEQ ID NO: 1) variant F360I in PPO-deficient E. coli BT3(ΔPPO); format: cell-based; details: LB agar, 37° C., light, 16 to 20 hours
Description: as §1, §2, §3, §4, §7, §8

[9] = test system: CyPPO16 (SEQ ID NO: 1) variant A162L in PPO-deficient E. coli BT3(ΔPPO); format: cell-based; details: LB agar, 37° C., light, 16 to 20 hours
Description: as §1, §2, §3, §4, §7, §8

[10] = test system: CyPPO16 (SEQ ID NO: 1) variant F360V in PPO-deficient E. coli BT3(ΔPPO); format: cell-based; details: LB agar, 37° C., light, 16 to 20 hours
Description: as §1, §2, §3, §4, §7, §8

[11] = test system: CyPPO16 (SEQ ID NO: 1) variant F360L in PPO-deficient E. coli BT3(ΔPPO); format: cell-based; details: LB agar, 37° C., light, 16 to 20 hours
Description: as §1, §2, §3, §4, §7, §8

[12] = test system: CyPPO17 (SEQ ID NO: 3) variant F359L in PPO-deficient E. coli BT3(ΔPPO); format: cell-based; details: LB agar, 37° C., light, 16 to 20 hours
Description: as §1, §2, §3, §4, §7, §8

[13] = test system: CyPPO17 (SEQ ID NO: 3) variant F359M in PPO-deficient E. coli BT3(ΔPPO); format: cell-based; details: LB agar, 37° C., light, 16 to 20 hours
Description: as §1, §2, §3, §4, §7, §8

[14] = test system: CyPPO17 (SEQ ID NO: 3) variant F359I in PPO-deficient E. coli BT3(ΔPPO); format: cell-based; details: LB agar, 37° C., light, 16 to 20 hours
Description: as §1, §2, §3, §4, §7, §8

[15] = test system: CyPPO17 (SEQ ID NO: 3) variant V304L in PPO-deficient E. coli BT3(ΔPPO); format: cell-based; details: LB agar, 37° C., light, 16 to 20 hours
Description: as §1, §2, §3, §4, §7, §8

[16] = test system: CyPPO17 (SEQ ID NO: 3) variant V304M in PPO-deficient E. coli BT3(ΔPPO); format: cell-based; details: LB agar, 37° C., light, 16 to 20 hours
Description: as §1, §2, §3, §4, §7, §8

[17] = test system: CyPPO16 (SEQ ID NO: 1) variant F360C in PPO-deficient E. coli BT3(ΔPPO); format: cell-based; details: LB agar, 37° C., light, 16 to 20 hours
Description: as §1, §2, §3, §4, §7, §8

[18] = test system: CyPPO16 (SEQ ID NO: 1) variant F360M in PPO-deficient E. coli BT3(ΔPPO); format: cell-based; details: LB agar, 37° C., light, 16 to 20 hours
Description: as §1, §2, §3, §4, §7, §8

[19] = test system: Thermosynechococcus sp. NK55a PPO CyPPO17, wild type, SEQ ID NO: 3; experiment: PPO enzyme kinetics (Vmax); format: biochemical; details: substrate protoporphyrinogen IX
Description: (§9) Thus, PPO proteins of wild type and variants were expressed as fused to MBP and were used for experiments.
(§10) Overall process was performed in dark under nitrogen stream. […] of protoporphyrin IX was dissolved in 20 ml of 20% (v/v) EtOH, and stirred under dark condition for 30 minutes. The obtained protoporphyrin IX solution was put into a 15 ml screw tube in an amount of 800 μl, and flushed with nitrogen gas for 5 minutes. To this, 1.5 g of sodium amalgam was added and vigorously shaken for 2 minutes. The lid was opened to exhaust hydrogen gas in the tube. Thereafter, the lid was closed and incubated for 3 minutes. […] To determine the enzyme activity of PPO protein, a reaction mixture was prepared with the following composition (based on 10 ml): 50 mM Tris-Cl (pH 8.0); 50 mM NaCl; 0.04% (v/v) Tween 20; 40 mM glucose (0.072 g); 5 units glucose oxidase (16.6 mg); and 10 units catalase (1 μl).
(§11) Hundred and eighty microliters of a reaction mixture containing the purified PPO protein were placed in 96 well plates and 20 μl of […] were added. […] The reaction proceeded at room temperature for 30 min and the fluorescence of protoporphyrin IX was measured using Microplate reader (Sense, Hidex) (excitation: 405 nm; emission: 633 nm). […] To this, 2.7 N HCl was added, and the absorbance at 408 nm was measured. A standard curve was generated using standard protoporphyrin IX, and PPO activity was measured by calibration of protoporphyrin IX using the standard curve of protoporphyrin IX.
(§12) Meanwhile, the maximal velocity (Vmax) values of each enzyme were determined in order to evaluate the kinetic characteristics of CyPPO16 and CyPPO17. The initial reaction velocity was measured where the reaction velocity was proportional to concentration by varying the substrate concentration. The amount of produced protoporphyrin IX, the enzyme reaction product, was measured by time course at room temperature for 20 minutes. Vmax values were calculated with the enzyme kinetics analysis program by Michaelis-Menten equation.

[20] = test system: Spirulina subsalsa PPO CyPPO16, wild type, SEQ ID NO: 1; experiment: PPO enzyme kinetics (Vmax); format: biochemical; details: substrate protoporphyrinogen IX
Description: as §9, §10, §11, §12

[21] = room temperature, 20 min time course, Michaelis-Menten

## CC(C)N(C)S(=O)(=O)NC(=O)c1cc(-n2c(=O)cc(C(F)(F)F)n(C)c2=O)c(F)cc1Cl [saflufenacil]
[1]
  Herbicide tolerance (relative to wild type): −
[2]
  Herbicide tolerance (relative to wild type): −
[3]
  Herbicide tolerance (relative to wild type): +++ (100-999 fold higher tolerance)
[4]
  Herbicide tolerance (relative to wild type): +++ (100-999 fold higher tolerance)
[5]
  Herbicide tolerance (relative to wild type): +++ (100-999 fold higher tolerance)
[6]
  Herbicide tolerance (relative to wild type): +++ (100-999 fold higher tolerance)
[7]
  Herbicide tolerance (relative to wild type): +++ (100-999 fold higher tolerance)
[8]
  Herbicide tolerance (relative to wild type): +++ (100-999 fold higher tolerance)
[9]
  Herbicide tolerance (relative to wild type): +++ (100-999 fold higher tolerance)
[10]
  Herbicide tolerance (relative to wild type): +++ (100-999 fold higher tolerance)
[11]
  Herbicide tolerance (relative to wild type): +++ (100-999 fold higher tolerance)
[12]
  Herbicide tolerance (relative to wild type): +++ (100-999 fold higher tolerance)
[13]
  Herbicide tolerance (relative to wild type): +++ (100-999 fold higher tolerance)
[14]
  Herbicide tolerance (relative to wild type): +++ (100-999 fold higher tolerance)
[15]
  Herbicide tolerance (relative to wild type): + (1-9 fold higher tolerance)
[16]
  Herbicide tolerance (relative to wild type): +++ (100-999 fold higher tolerance)
[17]
  Herbicide tolerance (relative to wild type): +++ (100-999 fold higher tolerance)
[18]
  Herbicide tolerance (relative to wild type): +++ (100-999 fold higher tolerance)

## C=Cc1c2[nH]c(c1C)Cc1[nH]c(c(CCC(=O)O)c1C)Cc1[nH]c(c(C)c1CCC(=O)O)Cc1[nH]c(c(C)c1C=C)C2 [protoporphyrinogen IX]
[19]
  Vmax compared with AtPPO1: more than two times higher
[19]; [21]
  Vmax: 378 nmole mg protein^−1 min^−1
[20]
  Vmax compared with AtPPO1: more than two times higher
[20]; [21]
  Vmax: 336 nmole mg protein^−1 min^−1
